Data as given in US20240409585A1, “MACROCYCLIC IMMUNOMODULATORS” (priority 2021, published 2024).
Numbered stars: 1 amine (or outer) side, 2 acyl side, 3 side chain; on linkers, the order of the positions; unused ones are H or OH. Bridge positions count the residues as written; N and C are the ends. Square brackets hold non-standard residues; d marks the D form. Peptide text beside a SMILES is read from it. * marks the point of attachment. ξ: configuration not given here. Bip(4'-COOH) = N[C@@H](Cc1ccc(-c2ccc(C(=O)O)cc2)cc1)C(=O)O; Bip(4'-NHAc) = CC(=O)Nc1ccc(-c2ccc(C[C@H](N)C(=O)O)cc2)cc1; X1 = O=C(C[C@H](N[*:1])C(=O)[*:2])NS(=O)(=O)c1ccc(Cl)cc1F; Phe(3-OCH2COOH) = N[C@@H](Cc1cccc(OCC(=O)O)c1)C(=O)O; Phe(3,4-Cl2) = N[C@@H](Cc1ccc(Cl)c(Cl)c1)C(=O)O; Phe(3-CF3) = N[C@@H](Cc1cccc(C(F)(F)F)c1)C(=O)O; Ala(morpholin-4-yl) = N[C@@H](CN1CCOCC1)C(=O)O; Phe(3-COOH) = N[C@@H](Cc1cccc(C(=O)O)c1)C(=O)O; Phe(4-CONH2) = NC(=O)c1ccc(C[C@H](N)C(=O)O)cc1; Phe(4-COOH) = N[C@@H](Cc1ccc(C(=O)O)cc1)C(=O)O; Phe(2,4-Cl2) = N[C@@H](Cc1ccc(Cl)cc1Cl)C(=O)O; Bip = N[C@@H](Cc1ccc(-c2ccccc2)cc1)C(=O)O; Phe(3-CN) = N#Cc1cccc(C[C@H](N)C(=O)O)c1; Phe(3-Me) = Cc1cccc(C[C@H](N)C(=O)O)c1; Val(3-OH) = CC(C)(O)[C@H](N)C(=O)O; 2Pal = N[C@@H](Cc1ccccn1)C(=O)O; Cha = N[C@@H](CC1CCCCC1)C(=O)O; Thr(3ξ) = CC(O)[C@H](N)C(=O)O; Carboxymethyl = O=C(O)C*; NMeA = CN[C@@H](C)C(=O)O; Nle = CCCC[C@H](N)C(=O)O; Orn = NCCC[C@H](N)C(=O)O; Dab = NCC[C@H](N)C(=O)O

What was measured:
[1] = target: T1, PE-labeled human PD-L1-Ig binding to Jurkat cell line over-expressing human PD-1 (Jurkat-PD-1) (Homo sapiens, UniProt Q15116); assay: Jurkat-PD-1 Cell Binding High-Content Screening Assay (CBA): Method 1; details: Jurkat-PD-1 cells, PE-labeled PD-L1-Ig
T1 construct: expressed in transfected cells; host or cells: Jurkat

[2] = target: T1, PE-labeled human PD-L1-Ig binding to Jurkat cell line over-expressing human PD-1 (Jurkat-PD-1); assay: Jurkat-PD-1 Cell Binding High-Content Screening Assay (CBA): Method 2 (presence and absence of tween-20); details: Jurkat-PD-1 cells, PE-labeled PD-L1-Ig 20 nM, presence or absence of tween-20 not given
Protocol: Jurkat-PD-1 Cell Binding High-Content Screening Assay (CBA): Method 2
Phycoerythrin (PE) was covalently linked to the Ig epitope tag of human PD-L1-Ig and fluorescently labeled PD-L1-Ig was used for binding studies with a Jurkat cell line over-expressing human PD-1 (Jurkat-PD-1). […] 100 nl of compound was added to cells followed by incubation at 37° C. for 2 hours. To interrogate potential issues with compound aggregation, compounds were tested in the presence and absence of tween-20 detergent. […] Then, 5 μl of PE-labeled PD-L1-Ig (20 nM final), diluted in DMEM supplemented with 10% fetal calf serum. […] Data was collected and processed using a Cell Insight NXT High Content Imager and associated software.

[3] = head μM, read-out: CBA Method 2 μM

T1 sequence (Q15116 25-288): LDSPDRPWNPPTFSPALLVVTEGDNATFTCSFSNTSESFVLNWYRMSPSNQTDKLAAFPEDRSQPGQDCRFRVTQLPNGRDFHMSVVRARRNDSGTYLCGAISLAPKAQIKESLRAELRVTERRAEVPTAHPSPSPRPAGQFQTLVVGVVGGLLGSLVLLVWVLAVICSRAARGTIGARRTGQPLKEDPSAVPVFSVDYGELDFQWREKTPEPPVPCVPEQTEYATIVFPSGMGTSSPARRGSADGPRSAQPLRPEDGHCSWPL

Structure (SMILES) | IC50 ([1]; μM, read-out: CBA Method 1 μM) [µM] | IC50 [2, 3] [µM] | IC50 ([2]; nM, read-out: CBA Method 2) [µM] | IC50 ([1]; nM, read-out: CBA Method 1) [µM]
CC(C)C[C@H]1NC(=O)[C@H](C)N(C)C(=O)[C@H](CCC(N)=O)NC(=O)[C@H](Cc2ccc(-c3ccccc3)cc2)NC(=O)[C@H](Cc2ccc(-c3ccc(C(=O)O)cc3)cc2)NC(=O)[C@H](Cc2cccc(C(F)(F)F)c2)NC(=O)[C@H](CC(=O)O)NC(=O)[C@H](Cc2ccc(C(=O)O)cc2)NC(=O)[C@H](CN2CCOCC2)NC(=O)CSC[C@@H](C(=O)N[C@@H](CCN)C(N)=O)NC(=O)[C@H](CCCN)NC(=O)[C@H](C(C)C)NC(=O)[C@H](CC2CCCCC2)NC(=O)[C@H](CCN)NC1=O [Example 5058] ({CH2CO}-[Ala(morpholin-4-yl)][Phe(4-COOH)]D[Phe(3-CF3)][Bip(4'-COOH)][Bip]Q[NMeA][dL][Dab][Cha]V[Orn]C[Dab]-NH2; thioether N-14) | 0.0032 | 0.0024 | – | –
CC(C)C[C@@H]1NC(=O)[C@H](Cc2c[nH]c3ccccc23)NC(=O)[C@H](CC(N)=O)NC(=O)[C@H](Cc2cccc(OCC(=O)O)c2)NC(=O)[C@H](Cc2ccccc2)NC(=O)CSC[C@@H](C(=O)NCC(N)=O)NC(=O)[C@H](CO)NC(=O)[C@H](C(C)C)NC(=O)[C@H](CC(C)C)NC(=O)[C@H](CC(N)=O)NC(=O)[C@@H](CC(C)C)NC(=O)[C@H](C)N(C)C(=O)[C@H](C(C)C)NC(=O)[C@H](Cc2ccc(-c3ccccc3)cc2)NC1=O [Example 5032] ({CH2CO}-F[Phe(3-OCH2COOH)]NWL[Bip]V[NMeA][dL]NLVSCG-NH2; thioether N-14) | 0.0987 | 0.108 | – | –
CC(=O)Nc1ccc(-c2ccc(C[C@@H]3NC(=O)[C@H](Cc4cccc(C)c4)NC(=O)[C@H](CC(=O)O)NC(=O)[C@H](Cc4ccc(OCC(=O)O)cc4)NC(=O)[C@H](C(C)O)NC(=O)CSC[C@@H](C(=O)N[C@@H](CCN)C(N)=O)NC(=O)[C@H](CO)NC(=O)[C@H](C(C)(C)O)NC(=O)[C@H](CC4CCCCC4)NC(=O)[C@H](CCN)NC(=O)[C@@H](CC(C)C)NC(=O)[C@H](C)N(C)C(=O)[C@H](Cc4ccc(C(N)=O)cc4)NC(=O)[C@H](Cc4ccc(-c5ccccc5)cc4)NC3=O)cc2)cc1 (stereo partly drawn) [Example 5071] ({CH2CO}-[Thr(3ξ)]Y(Carboxymethyl)D[Phe(3-Me)][Bip(4'-NHAc)][Bip][Phe(4-CONH2)][NMeA][dL][Dab][Cha][Val(3-OH)]SC[Dab]-NH2; thioether N-14) | 0.0322 | 0.0261 | – | –
CCCC[C@@H]1NC(=O)CSC[C@@H](C(=O)N[C@@H](CCN)C(N)=O)NC(=O)[C@H](CC(N)=O)NC(=O)[C@H](C(C)C)NC(=O)[C@H](CC2CCCCC2)NC(=O)[C@H](CCN)NC(=O)[C@@H](CC(C)C)NC(=O)[C@H](C)N(C)C(=O)[C@H](CCCN)NC(=O)[C@H](Cc2ccc(-c3ccccc3)cc2)NC(=O)[C@H](Cc2ccc(-c3ccc(C(=O)O)cc3)cc2)NC(=O)[C@H](Cc2cccc(C(F)(F)F)c2)NC(=O)[C@H](CC(=O)O)NC(=O)[C@H](Cc2ccc(-c3ccc(C(=O)O)cc3)cc2)NC1=O [Example 5090] ({CH2CO}-[Nle][Bip(4'-COOH)]D[Phe(3-CF3)][Bip(4'-COOH)][Bip][Orn][NMeA][dL][Dab][Cha]VNC[Dab]-NH2; thioether N-14) | 0.01 | – | 0.0087 | –
Cc1cccc(C[C@@H]2NC(=O)[C@H](CC(=O)O)NC(=O)[C@H](Cc3ccc(OCC(=O)O)cc3)NC(=O)[C@H](CN3CCOCC3)NC(=O)CSC[C@@H](C(=O)N[C@@H](CCN)C(N)=O)NC(=O)[C@H](CCCN)NC(=O)[C@H](C(C)C)NC(=O)[C@H](Cc3ccccn3)NC(=O)[C@H](CCN)NC(=O)[C@@H](CC(C)C)NC(=O)[C@H](C)N(C)C(=O)[C@H](CCC(N)=O)NC(=O)[C@H](Cc3ccc(-c4ccccc4)cc3)NC(=O)[C@H](Cc3ccc(C(=O)O)cc3)NC2=O)c1 [Example 5038] ({CH2CO}-[Ala(morpholin-4-yl)]Y(Carboxymethyl)D[Phe(3-Me)][Phe(4-COOH)][Bip]Q[NMeA][dL][Dab][2Pal]V[Orn]C[Dab]-NH2; thioether N-14) | 0.0425 | 0.0171 | – | –
CC(C)C[C@H]1NC(=O)[C@H](C)N(C)C(=O)[C@H](CCCN)NC(=O)[C@H](Cc2ccc(-c3ccccc3)cc2)NC(=O)[C@H](Cc2ccc(-c3ccc(C(=O)O)cc3)cc2)NC(=O)[C@H](Cc2cccc(C(F)(F)F)c2)NC(=O)[C@H](CC(=O)O)NC(=O)[C@H](Cc2ccc(-c3ccc(C(=O)O)cc3)cc2)NC(=O)[C@H](Cc2ccc(OCC(=O)O)cc2)NC(=O)CSC[C@@H](C(=O)N[C@@H](CCN)C(N)=O)NC(=O)[C@H](CC(N)=O)NC(=O)[C@H](C(C)C)NC(=O)[C@H](CC2CCCCC2)NC(=O)[C@H](CCN)NC1=O [Example 5086] ({CH2CO}-Y(Carboxymethyl)[Bip(4'-COOH)]D[Phe(3-CF3)][Bip(4'-COOH)][Bip][Orn][NMeA][dL][Dab][Cha]VNC[Dab]-NH2; thioether N-14) | – | – | 0.0099 | 0.0055
CC(C)C[C@H]1NC(=O)[C@H](C)N(C)C(=O)[C@H](CCC(N)=O)NC(=O)[C@H](Cc2ccc(-c3ccccc3)cc2)NC(=O)[C@H](Cc2ccc(C(=O)O)cc2)NC(=O)[C@H](Cc2cccc(C(F)(F)F)c2)NC(=O)[C@H](CC(=O)NS(=O)(=O)c2ccc(Cl)cc2F)NC(=O)[C@H](Cc2ccc(C(=O)O)cc2)NC(=O)[C@H](CN2CCOCC2)NC(=O)CSC[C@@H](C(=O)N[C@@H](CCN)C(N)=O)NC(=O)[C@H](CCCN)NC(=O)[C@H](C(C)C)NC(=O)[C@H](CC2CCCCC2)NC(=O)[C@H](CCN)NC1=O [Example 5081] ({CH2CO}-[Ala(morpholin-4-yl)][Phe(4-COOH)][X1][Phe(3-CF3)][Phe(4-COOH)][Bip]Q[NMeA][dL][Dab][Cha]V[Orn]C[Dab]-NH2; thioether N-14) | 0.173 | 0.113 | – | –
Cc1cccc(C[C@@H]2NC(=O)[C@H](CC(=O)O)NC(=O)[C@H](Cc3ccc(OCC(=O)O)cc3)NC(=O)[C@H](CN3CCOCC3)NC(=O)CSC[C@@H](C(=O)N[C@@H](CCN)C(N)=O)NC(=O)[C@H](CCCN)NC(=O)[C@H](C(C)C)NC(=O)[C@H](Cc3ccc(Cl)c(Cl)c3)NC(=O)[C@H](CCN)NC(=O)[C@@H](CC(C)C)NC(=O)[C@H](C)N(C)C(=O)[C@H](CCC(N)=O)NC(=O)[C@H](Cc3ccc(-c4ccccc4)cc3)NC(=O)[C@H](Cc3ccc(C(=O)O)cc3)NC2=O)c1 [Example 5042] ({CH2CO}-[Ala(morpholin-4-yl)]Y(Carboxymethyl)D[Phe(3-Me)][Phe(4-COOH)][Bip]Q[NMeA][dL][Dab][Phe(3,4-Cl2)]V[Orn]C[Dab]-NH2; thioether N-14) | 0.0639 | 0.0689 | – | –
Cc1cccc(C[C@@H]2NC(=O)[C@H](CC(=O)O)NC(=O)[C@H](Cc3ccc(OCC(=O)O)cc3)NC(=O)[C@H](CN3CCOCC3)NC(=O)CSC[C@@H](C(=O)N[C@@H](CCN)C(N)=O)NC(=O)[C@H](CCCN)NC(=O)[C@H](C(C)C)NC(=O)[C@H](Cc3ccc(Cl)cc3Cl)NC(=O)[C@H](CCN)NC(=O)[C@@H](CC(C)C)NC(=O)[C@H](C)N(C)C(=O)[C@H](CCC(N)=O)NC(=O)[C@H](Cc3ccc(-c4ccccc4)cc3)NC(=O)[C@H](Cc3ccc(C(=O)O)cc3)NC2=O)c1 [Example 5041] ({CH2CO}-[Ala(morpholin-4-yl)]Y(Carboxymethyl)D[Phe(3-Me)][Phe(4-COOH)][Bip]Q[NMeA][dL][Dab][Phe(2,4-Cl2)]V[Orn]C[Dab]-NH2; thioether N-14) | 0.0888 | 0.0822 | – | –
CC(C)C[C@H]1NC(=O)[C@H](C)N(C)C(=O)[C@H](CCC(N)=O)NC(=O)[C@H](Cc2ccc(-c3ccccc3)cc2)NC(=O)[C@H](Cc2ccc(C(=O)O)cc2)NC(=O)[C@H](Cc2cccc(C(F)(F)F)c2)NC(=O)[C@H](CC(=O)O)NC(=O)[C@H](Cc2ccc(OCC(=O)O)cc2)NC(=O)[C@H](CN2CCOCC2)NC(=O)CSC[C@@H](C(=O)N[C@@H](CCN)C(N)=O)NC(=O)[C@H](CCCN)NC(=O)[C@H](C(C)C)NC(=O)[C@H](CC2CCCCC2)NC(=O)[C@H](CCN)NC1=O [Example 5013] ({CH2CO}-[Ala(morpholin-4-yl)]Y(Carboxymethyl)D[Phe(3-CF3)][Phe(4-COOH)][Bip]Q[NMeA][dL][Dab][Cha]V[Orn]C[Dab]-NH2; thioether N-14) | – | – | 0.004 | 0.011
CC(C)C[C@@H]1NC(=O)[C@H](Cc2c[nH]c3ccccc23)NC(=O)[C@H](CC(N)=O)NC(=O)[C@H](Cc2cccc(C(=O)O)c2)NC(=O)[C@H](Cc2ccccc2)NC(=O)CSC[C@@H](C(=O)NCC(N)=O)NC(=O)[C@H](CO)NC(=O)[C@H](C(C)C)NC(=O)[C@H](CC(C)C)NC(=O)[C@H](CC(N)=O)NC(=O)[C@@H](CC(C)C)NC(=O)[C@H](C)N(C)C(=O)[C@H](C(C)C)NC(=O)[C@H](Cc2ccc(-c3ccccc3)cc2)NC1=O [Example 5026] ({CH2CO}-F[Phe(3-COOH)]NWL[Bip]V[NMeA][dL]NLVSCG-NH2; thioether N-14) | 0.12 | 0.12 | – | –
Cc1cccc(C[C@@H]2NC(=O)[C@H](CC(=O)O)NC(=O)[C@H](Cc3ccc(OCC(=O)O)cc3)NC(=O)[C@H](CN3CCOCC3)NC(=O)CSC[C@@H](C(=O)N[C@@H](CCN)C(N)=O)NC(=O)[C@H](CCCN)NC(=O)[C@H](C(C)C)NC(=O)[C@H](CC3CCCCC3)NC(=O)[C@H](CCN)NC(=O)[C@@H](CC(C)C)NC(=O)[C@H](C)N(C)C(=O)[C@H](CCC(N)=O)NC(=O)[C@H](Cc3ccc(-c4ccccc4)cc3)NC(=O)[C@H](Cc3cccc(C#N)c3)NC2=O)c1 [Example 5030] ({CH2CO}-[Ala(morpholin-4-yl)]Y(Carboxymethyl)D[Phe(3-Me)][Phe(3-CN)][Bip]Q[NMeA][dL][Dab][Cha]V[Orn]C[Dab]-NH2; thioether N-14) | 0.0047 | 0.0043 | – | –
